Results published in PMC5908784, “Extracellular loops 2 and 3 of the calcitonin receptor selectively modify agonist binding and efficacy” (Biochemical Pharmacology, 2018).
Substitutions are numbered along the chain they refer to. Read-outs that look alike come from different tables or passages of the source. Where a SMILES comes first, the peptide text is derived from it. Bridges are numbered along the chain shown (N, C = ends).

How the values were obtained:
Test in all cases: IP1 accumulation
Format in all cases: cell-based
[1] = molecular target: T1, hCTR WT (Homo sapiens, UniProt P30988); conditions: for Emax: SEM, read-out: Emax (% WT)
T1 construct: expressed in transfected cells
T1 sequence (P30988 25-474): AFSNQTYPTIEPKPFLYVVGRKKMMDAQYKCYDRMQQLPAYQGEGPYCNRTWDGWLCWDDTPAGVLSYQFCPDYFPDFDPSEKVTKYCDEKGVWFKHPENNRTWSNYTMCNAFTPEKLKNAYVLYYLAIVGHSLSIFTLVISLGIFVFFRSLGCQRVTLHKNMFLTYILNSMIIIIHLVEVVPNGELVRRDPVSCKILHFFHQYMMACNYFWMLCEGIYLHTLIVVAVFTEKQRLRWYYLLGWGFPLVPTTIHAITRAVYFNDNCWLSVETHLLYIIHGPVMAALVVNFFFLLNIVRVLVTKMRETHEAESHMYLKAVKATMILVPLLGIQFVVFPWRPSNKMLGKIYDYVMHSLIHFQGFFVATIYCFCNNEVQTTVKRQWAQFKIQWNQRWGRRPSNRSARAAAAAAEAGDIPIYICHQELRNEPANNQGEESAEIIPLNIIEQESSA
How it was run: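 Ligand-induced IP1 (60 min, LiCl) measured by HTRF; normalized to 100 μM ATP response.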

[2] = molecular target: T2, hCTR Y372A (Homo sapiens, UniProt P30988, Y372A); conditions: mean ± S.E.M.; for Emax: IP1 maximal response, SEM
T2 construct: c-Myc (N); expressed in transfected cells
T2 sequence (P30988 25-474 Y372A): T1 sequence (P30988 25-474) with Y348A
How it was run: (§1)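 HTRF IP-One readout of IP1 after 60 min ligand stimulation (LiCl present), cells seeded overnight. Normalized to 100 μM ATP max response. EC50/Emax via 3-parameter logistic curve fit.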

[3] = molecular target: T3, hCTR V375A (Homo sapiens, UniProt P30988, V375A); conditions: mean ± S.E.M.; for Emax: IP1 maximal response, SEM
T3 construct: c-Myc (N); expressed in transfected cells
T3 sequence (P30988 25-474 V375A): T1 sequence (P30988 25-474) with V351A
How it was run: as §1

[4] = molecular target: T4, hCTR T295A (Homo sapiens, UniProt P30988, T295A); conditions: mean ± S.E.M.; for Emax: IP1 maximal response, SEM
T4 construct: c-Myc (N); expressed in transfected cells
T4 sequence (P30988 25-474 T295A): T1 sequence (P30988 25-474) with T271A
How it was run: as §1

[5] = molecular target: T5, hCTR F285A (Homo sapiens, UniProt P30988, F285A); conditions: mean ± S.E.M.; for Emax: IP1 maximal response, SEM
T5 construct: expressed in transfected cells
T5 sequence (P30988 25-474 F285A): T1 sequence (P30988 25-474) with F261A
How it was run: as §1

[6] = IP1, CV1-FlpIn cells, 60 min, LiCl

| EC50 ([1]; WT, IP1, CV1-FlpIn cells, 60 min, LiCl, mean ± S.E.M.) [nM] | Emax ([1]; WT, IP1 maximal response, mean ± S.E.M.) [%] | EC50 [2, 6] [nM] | EC50 [3, 6] [nM] | EC50 [4, 6] [nM] | EC50 [5, 6] [nM] | SMILES | Emax [2] [%] | Emax [3] [%] | Emax [4] [%] | Emax [5] [%] | Emax [1] [%] |
| --- | --- | --- | --- | --- | --- | --- | --- | --- | --- | --- | --- |
| 1.38 | 100 ± 3 | 2.88 | 1.17 | 4.57 | 5.01 | CSCC[C@H](NC(=O)CNC(=O)[C@H](CO)NC(=O)[C@H](Cc1ccccc1)NC(=O)[C@H](CCCNC(=N)N)NC(=O)[C@H](Cc1c[nH]cn1)NC(=O)[C@H](Cc1ccccc1)NC(=O)[C@H](CC(N)=O)NC(=O)[C@H](CC(N)=O)NC(=O)[C@H](CC(C)C)NC(=O)[C@H](CC(N)=O)NC(=O)[C@H](CCCNC(=N)N)NC(=O)[C@H](Cc1c[nH]c2ccccc12)NC(=O)[C@H](Cc1ccc(O)cc1)NC(=O)[C@H](C)NC(=O)[C@H](CO)NC(=O)[C@H](CC(C)C)NC(=O)[C@@H](NC(=O)[C@@H]1CSSC[C@H](N)C(=O)N[C@@H](CO)C(=O)N[C@@H](CC(N)=O)C(=O)N[C@@H](CC(C)C)C(=O)N[C@@H](CO)C(=O)N[C@@H]([C@@H](C)O)C(=O)N1)C(C)C)C(=O)NCC(=O)N[C@@H](Cc1ccccc1)C(=O)NCC(=O)N1CCC[C@H]1C(=O)N[C@@H](CCC(=O)O)C(=O)N[C@H](C(=O)N1CCC[C@H]1C(N)=O)[C@@H](C)O [pCT] (H-CSNLSTCVLSAYWRNLNNFHRFSGMGFGPETP-NH2; disulfide 1-7) | 44 ± 5 | 100 ± 5 | 56 ± 7 | 112 ± 13 |  |
|  |  |  |  |  |  | CC(C)C[C@H](NC(=O)[C@H](CCCCN)NC(=O)CNC(=O)[C@H](CC(C)C)NC(=O)[C@@H](NC(=O)[C@@H]1CSSC[C@H](N)C(=O)N[C@@H](CO)C(=O)N[C@@H](CC(N)=O)C(=O)N[C@@H](CC(C)C)C(=O)N[C@@H](CO)C(=O)N[C@@H]([C@@H](C)O)C(=O)N1)C(C)C)C(=O)N[C@@H](CO)C(=O)N[C@@H](CCC(N)=O)C(=O)N[C@@H](CCC(=O)O)C(=O)N[C@@H](CC(C)C)C(=O)N[C@@H](Cc1c[nH]cn1)C(=O)N[C@@H](CCCCN)C(=O)N[C@@H](CC(C)C)C(=O)N[C@@H](CCC(N)=O)C(=O)N[C@H](C(=O)N[C@@H](Cc1ccc(O)cc1)C(=O)N1CCC[C@H]1C(=O)N[C@@H](CCCNC(=N)N)C(=O)N[C@H](C(=O)N[C@@H](CC(N)=O)C(=O)N[C@H](C(=O)NCC(=O)N[C@@H](CO)C(=O)NCC(=O)N[C@H](C(=O)N1CCC[C@H]1C(N)=O)[C@@H](C)O)[C@@H](C)O)[C@@H](C)O)[C@@H](C)O [sCT] | 46 ± 4 | 87 ± 5 | 53 ± 7 | 114 ± 6 | 100 ± 3 |
|  |  |  |  |  |  | CC[C@H](C)[C@H](NC(=O)[C@H](C)NC(=O)[C@@H](NC(=O)[C@H](CCC(N)=O)NC(=O)[C@@H]1CCCN1C(=O)[C@H](Cc1ccccc1)NC(=O)[C@@H](NC(=O)[C@H](Cc1c[nH]cn1)NC(=O)[C@H](Cc1ccccc1)NC(=O)[C@H](CCCCN)NC(=O)[C@H](CC(N)=O)NC(=O)[C@H](Cc1ccccc1)NC(=O)[C@H](CC(=O)O)NC(=O)[C@H](CCC(N)=O)NC(=O)[C@@H](NC(=O)[C@H](Cc1ccc(O)cc1)NC(=O)[C@@H](NC(=O)CNC(=O)[C@H](CC(C)C)NC(=O)[C@H](CCSC)NC(=O)[C@@H]1CSSC[C@H](N)C(=O)NCC(=O)N[C@@H](CC(N)=O)C(=O)N[C@@H](CC(C)C)C(=O)N[C@@H](CO)C(=O)N[C@@H]([C@@H](C)O)C(=O)N1)[C@@H](C)O)[C@@H](C)O)[C@@H](C)O)[C@@H](C)O)C(=O)NCC(=O)N[C@H](C(=O)NCC(=O)N[C@@H](C)C(=O)N1CCC[C@H]1C(N)=O)C(C)C [hCT] | 68 ± 9 | 104 ± 6 | 43 ± 4 | 58 ± 6 | 100 ± 3 |
